Active and inactive are the calls of the source. How the calls were made is not given here.
Tested on: rodent carcinogenicity bioassays, tumor incidence
Experiment: CCRIS carcinogenicity studies
Excerpt: The CCRIS database contains chemical records with carcinogenicity, mutagenicity, tumor promotion, and tumor inhibition test results. It was developed by the National Cancer Institute (NCI). Data are derived from studies cited in primary journals, current awareness tools, NCI reports, and other sources. Test results have been reviewed by experts in carcinogenesis and mutagenesis.
CCRIS provides historical information from the years 1985 - 2011. It is no longer updated.
This is an archive assay for CCRIS carcinogenicity studies.

Measured: carcinogen call

CCN(N=O)C(=O)NC
active: Species: RAT, Strain/Sex: F344/FEMALE, Route: GAVAGE, Dose: 0, 20, 40 UMOL/WK IN CORN OIL/ETHYL ACETATE (2: 1) FOR 30 WK FOR TOTAL DOSES OF 0, 0.6, 1.2 MMOL (STUDY DURATION: LIFETI, Dose: 0, 20, 40 UMOL/WK IN CORN OIL/ETHYL ACETATE (2: 1) FOR 30 WK FOR TOTAL DOSES OF 0, 0.6, 1.2 MMOL (STUDY DURATION: LIFETI, Tumor Site: Type of Lesion: MAMMARY GLAND: TUMOR, UTERUS: TUMOR active; positive | Species: RAT, Strain/Sex: F344/FEMALE, Route: ORAL, Dose: 0, 20, 40 UMOL/WK IN DRINKING WATER FOR 30 WK FOR TOTAL DOSES OF 0, 0.6, 1.2 MMOL (STUDY DURATION: LIFETIME), Dose: 0, 20, 40 UMOL/WK IN DRINKING WATER FOR 30 WK FOR TOTAL DOSES OF 0, 0.6, 1.2 MMOL (STUDY DURATION: LIFETIME), Tumor Site: Type of Lesion: LUNG: TUMOR, MAMMARY GLAND: TUMOR, UTERUS: TUMOR, THYROID: FOLLICULAR CELL TUMOR, NERVOUS SYSTEM: TUMOR, Tumor Site: Type of Lesion: LUNG: TUMOR, MAMMARY GLAND: TUMOR, UTERUS: TUMOR, THYROID: FOLLICULAR CELL TUMOR, NERVOUS SYSTEM: TUMOR active; positive | Species: RAT, Strain/Sex: F344/MALE, Route: GAVAGE, Dose: 0, 20, 40 UMOL/WK IN CORN OIL/ETHYL ACETATE (2: 1) FOR 30 WK FOR TOTAL DOSES OF 0, 0.6, 1.2 MMOL (STUDY DURATION: LIFETI, Dose: 0, 20, 40 UMOL/WK IN CORN OIL/ETHYL ACETATE (2: 1) FOR 30 WK FOR TOTAL DOSES OF 0, 0.6, 1.2 MMOL (STUDY DURATION: LIFETI, Tumor Site: Type of Lesion: LUNG: TUMOR, TESTIS: MESOTHELIOMA, ZYMBAL GLAND: TUMOR, Tumor Site: Type of Lesion: LUNG: TUMOR, TESTIS: MESOTHELIOMA, ZYMBAL GLAND: TUMOR active; positive | Species: RAT, Strain/Sex: F344/MALE, Route: ORAL, Dose: 0, 20, 40 UMOL/WK IN DRINKING WATER FOR 30 WK FOR TOTAL DOSES OF 0, 0.6, 1.2 MMOL (STUDY DURATION: LIFETIME), Dose: 0, 20, 40 UMOL/WK IN DRINKING WATER FOR 30 WK FOR TOTAL DOSES OF 0, 0.6, 1.2 MMOL (STUDY DURATION: LIFETIME), Tumor Site: Type of Lesion: LUNG: TUMOR, THYROID: FOLLICULAR CELL TUMOR, TESTIS: MESOTHELIOMA, NERVOUS SYSTEM: TUMOR, ZYMBAL GLAND: TUMOR, COLON: TU, Tumor Site: Type of Lesion: LUNG: TUMOR, THYROID: FOLLICULAR CELL TUMOR, TESTIS: MESOTHELIOMA, NERVOUS SYSTEM: TUMOR, ZYMBAL GLAND: TUMOR, COLON: TU active; positive

CO[C@H]1C[C@]2(C)[C@@H](O)CC[C@H]2[C@@H]2CCc3cc(O)ccc3[C@H]21
active: Species: HAMSTER, Strain/Sex: SYRIAN/MALE, Route: SUBCUTANEOUS IMPLANT, Dose: 0, 20 MG IN PELLETS IMPLANTED EVERY 2.5 MO FOR 9 MO (STUDY DURATION: 9 MO), Tumor Site: Type of Lesion: KIDNEY: TUMOR active; positive

O=C1CCO1
active: Species: MOUSE, Route: DERMAL, Tumor Site: Type of Lesion: INTEGUMENTARY SYSTEM (SKIN) active; positive | Species: MOUSE, Route: INTRAPERITONEAL, Tumor Site: Type of Lesion: LIVER, LYMPHATIC SYSTEM: LYMPHOMA active; positive | Species: MOUSE, Route: SUBCUTANEOUS, Tumor Site: Type of Lesion: INJECTION SITE active; positive | Species: MOUSE, Strain/Sex: CF1/FEMALE, Route: DERMAL, Dose: 0, 2% IN ACETONE 2D/WK FOR 2 YR (STUDY DURATION: 2 YR), Tumor Site: Type of Lesion: SKIN: SQUAMOUS CELL CARCINOMA, SKIN: CARCINOSARCOMA active; positive | Species: MOUSE, Strain/Sex: CF1/MALE, Route: DERMAL, Dose: 0, 2% IN ACETONE 2D/WK FOR 104 WK (STUDY DURATION: 2 YR), Tumor Site: Type of Lesion: SKIN: SQUAMOUS CELL CARCINOMA, SKIN: DERMAL FIBROSARCOMA, SKIN: CARCINOSARCOMA, Tumor Site: Type of Lesion: SKIN: SQUAMOUS CELL CARCINOMA, SKIN: DERMAL FIBROSARCOMA, SKIN: CARCINOSARCOMA active; positive | Species: RAT, Route: SUBCUTANEOUS, Tumor Site: Type of Lesion: INJECTION SITE active; positive | Species: RAT, Strain/Sex: SPRAGUE-DAWLEY/MALE, Route: INHALATION, Dose: 0, 5, 10, 20 PPM 6 HR/D 5 D/WK FOR 30 D EXCEPT 20 PPM GROUP WHICH WAS EXPOSED FOR 5 D (STUDY DURATION: LIFETIME), Dose: 0, 5, 10, 20 PPM 6 HR/D 5 D/WK FOR 30 D EXCEPT 20 PPM GROUP WHICH WAS EXPOSED FOR 5 D (STUDY DURATION: LIFETIME), Tumor Site: Type of Lesion: NASAL CAVITY: TUMORS active; positive

Cc1ccc2c(c1N)C(=O)c1ccccc1C2=O
inactive: Species: MOUSE, Strain/Sex: B6C3F1/MALE, Route: ORAL, Dose: 0, 0.06% OF DIET (2 DOSAGE REGIMENS--A & B RECEIVING SAME CONC), TWA inactive; negative
active: Species: MOUSE, Strain/Sex: B6C3F1/FEMALE, Route: ORAL, Dose: 0, 0.06% OF DIET (2 DOSAGE REGIMENS--A & B RECEIVING SAME CONC), TWA, Tumor Site: Type of Lesion: LIVER: HEPATOCELLULAR CARCINOMA, NEOPLASTIC NODULE active; positive | Species: RAT, Strain/Sex: F344/FEMALE, Route: ORAL, Dose: 0, 0.10, 0.20% OF DIET, Dose: 0, 0.10, 0.20% OF DIET, Tumor Site: Type of Lesion: LIVER: HEPATOCELLULAR CARCINOMA, NEOPLASTIC NODULE active; positive | Species: RAT, Strain/Sex: F344/MALE, Route: ORAL, Dose: 0, 0.10, 0.20% OF DIET, Dose: 0, 0.10, 0.20% OF DIET, Tumor Site: Type of Lesion: LIVER: HEPATOCELLULAR CARCINOMA, NEOPLASTIC NODULE, KIDNEY: TUBULAR CELL ADENOMA, TUBULAR CELL ADENOCARCINOMA, ADENOCARC active; positive
